# According to patent US10913727B2, “Modulators of the integrated stress pathway” (Calico Life Sciences LLC, priority 2016, dated 2021):
# Tested on: HEK293T cells carrying the ATF4 luciferase reporter
# Test: ATF4-Luc assay, in vitro model of Vanishing Cell White Matter Disease (VWMD)
# Assay type: cell-based
# Conditions: Homo sapiens, HEK-293T, 1 μg/mL tunicamycin, 7 hours, One Glo luminescence
# Method in brief: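 Compound at 200 nM and tunicamycin at 1 μg/mL were given together for 7 h to HEK293T cells stably transduced with an ATF4 5′-UTR-driven firefly luciferase reporter. Read-out by luminescence, reported as EC50.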
row,Structure (SMILES),EC50 [nM]
1,"O=C(COc1ccc(Cl)c(F)c1)NC12CC(NC(=O)c3ccc(-c4ccc(Cl)c(F)c4)o3)(C1)C2 [Compound 106, N-{3-[2-(4-chloro-3-fluorophenoxy)acetamido]bicyclo[1.1.1]pentan-1-yl}-5-(4-chloro-3-fluorophenyl)furan-2-carboxamide]",< 50
2,"Cn1ccc(C(=O)NC23CCC(NC(=O)COc4ccc(Cl)c(F)c4)(CC2)C(O)C3)n1 (stereo not shown) [Compound 361, N-{4-[2-(4-chloro-3-fluorophenoxy)acetamido]-3-hydroxybicyclo[2.2.2]octan-1-yl}-1-methyl-1H-pyrazole-3-carboxamide]",50 to 250
3,"Cn1cc(C(=O)NC23CC(NC(=O)COc4ccc(Cl)c(F)c4)(C2)C3)ccc1=O [Compound 818, N-{3-[2-(4-chloro-3-fluorophenoxy)acetamido]bicyclo[1.1.1]pentan-1-yl}-1-methyl-6-oxo-1,6-dihydropyridine-3-carboxamide]",> 2000
4,"O=C(COc1ccc(Cl)c(F)c1)NC12CC(Nc3ccc(C(F)(F)F)nc3)(C1)C2 [Compound 104, 2-(4-chloro-3-fluorophenoxy)-N-(3-{[6-(trifluoromethyl)pyridin-3-yl]amino}bicyclo[1.1.1]pentan-1-yl)acetamide]",250 to 1000
5,"O=C(COc1ccc(Cl)c(F)c1)NC12CCC(NC(=O)c3ccn[nH]3)(CC1)C(O)C2 (stereo not shown) [Compound 224, N-{4-[2-(4-chloro-3-fluorophenoxy)acetamido]-2-hydroxybicyclo[2.2.2]octan-1-yl}-1H-pyrazole-5-carboxamide]",250 to 1000
6,"Cc1ccc(C(=O)NC23CC(NC(=O)COc4ccc(Cl)c(F)c4)(C2)C3)cn1 [Compound 140, N-{3-[2-(4-chloro-3-fluorophenoxy)acetamido]bicyclo[1.1.1]pentan-1-yl}-6-methylpyridine-3-carboxamide]",250 to 1000
7,"O=C(COc1ccc(Cl)c(F)c1)NC12CC(NC(=O)c3cccc(F)c3)(C1)C2 [Compound 508, N-{3-[2-(4-chloro-3-fluorophenoxy)acetamido]bicyclo[1.1.1]pentan-1-yl}-3-fluorobenzamide]",50 to 250
8,"O=C(COc1ccc(Cl)c(F)c1)NC12CC(NC(=O)c3cccc4nsnc34)(C1)C2 [Compound 803, N-{3-[2-(4-chloro-3-fluorophenoxy)acetamido]bicyclo[1.1.1]pentan-1-yl}-2,1,3-benzothiadiazole-4-carboxamide]",> 2000
9,"CCc1cc(C(=O)NC23CCC(NC(=O)COc4ccc(Cl)c(F)c4)(CC2)[C@@H](O)C3)on1 [Compound 618, N-{(3S)-4-[2-(4-chloro-3-fluorophenoxy)acetamido]-3-hydroxybicyclo[2.2.2]octan-1-yl}-3-ethyl-1,2-oxazole-5-carboxamide]",< 50
10,"O=C(COc1ccc2c(c1)OC(F)(F)O2)NC12CC(NC(=O)c3ccc(OC(F)F)nc3)(C1)C2 [Compound 458, N-(3-{2-[(2,2-difluoro-2H-1,3-benzodioxol-5-yl)oxy]acetamido}bicyclo[1.1.1]pentan-1-yl)-6-(difluoromethoxy)pyridine-3-carboxamide]",50 to 250
11,"O=C(COc1ccc(Cl)c(F)c1)NC12CCC(NC(=O)c3cc4nccnc4s3)(CC1)CC2O (stereo not shown) [Compound 627, N-{4-[2-(4-chloro-3-fluorophenoxy)acetamido]-3-hydroxybicyclo[2.2.2]octan-1-yl}thieno[2,3-b]pyrazine-6-carboxamide]",> 2000
12,"COc1ccsc1C(=O)NC12CC(NC(=O)COc3ccc(Cl)c(F)c3)(C1)C2 [Compound 548, N-{3-[2-(4-chloro-3-fluorophenoxy)acetamido]bicyclo[1.1.1]pentan-1-yl}-3-methoxythiophene-2-carboxamide]",> 2000
13,"O=C(COc1ccc(Cl)c(F)c1)NC12CC(NC(=O)c3cccc(OC(F)F)c3)(C1)C2 [Compound 764, N-{3-[2-(4-chloro-3-fluorophenoxy)acetamido]bicyclo[1.1.1]pentan-1-yl}-3-(difluoromethoxy)benzamide]",> 2000
14,"CCc1ccc(C(=O)NC23CC(NC(=O)COc4ccc(Cl)c(Cl)c4)(C2)C3)nc1 [Compound 700, N-{3-[2-(3,4-dichlorophenoxy)acetamido]bicyclo[1.1.1]pentan-1-yl}-5-ethylpyridine-2-carboxamide]",< 50
15,"O=C(COc1ccc(Cl)c(F)c1)NC12CC(NC(=O)c3ccnc(CO)c3)(C1)C2 [Compound 741, N-{3-[2-(4-chloro-3-fluorophenoxy)acetamido]bicyclo[1.1.1]pentan-1-yl}-2-(hydroxymethyl)pyridine-4-carboxamide]",> 2000
16,"O=C(COc1ccc(Cl)c(Cl)c1)NC12CC(NC(=O)c3cccnc3)(C1)C2 [Compound 456, N-{3-[2-(3,4-dichlorophenoxy)acetamido]bicyclo[1.1.1]pentan-1-yl}pyridine-3-carboxamide]",50 to 250
17,"O=C(COc1ccc(Cl)c(F)c1)NC12CC(NC(=O)c3cc(C4CC4)no3)(C1)C2 [Compound 244, N-{3-[2-(4-chloro-3-fluorophenoxy)acetamido]bicyclo[1.1.1]pentan-1-yl}-3-cyclopropyl-1,2-oxazole-5-carboxamide]",50 to 250
18,"Cc1cc(C(=O)NC23CCC(NC(=O)COc4ccc(F)c(F)c4)(CC2)C(=O)C3)on1 [Compound 461, N-{4-[2-(3,4-difluorophenoxy)acetamido]-3-oxobicyclo[2.2.2]octan-1-yl}-3-methyl-1,2-oxazole-5-carboxamide]",1000 to 2000
19,"COc1cc(C(=O)NC23CCC(NC(=O)COc4ccc(Cl)c(F)c4)(C2)C3)on1 [Compound 707, N-{4-[2-(4-chloro-3-fluorophenoxy)acetamido]bicyclo[2.1.1]hexan-1-yl}-3-methoxy-1,2-oxazole-5-carboxamide]",250 to 1000
20,"O=C(COc1ccc(Cl)c(F)c1)NC12CCC(NC(=O)c3cnn4ccccc34)(CC1)CC2O (stereo not shown) [Compound 596, N-{4-[2-(4-chloro-3-fluorophenoxy)acetamido]-3-hydroxybicyclo[2.2.2]octan-1-yl}pyrazolo[1,5-a]pyridine-3-carboxamide]",250 to 1000
21,"Cc1oncc1C(=O)NC12CC(NC(=O)COc3ccc(Cl)c(F)c3)(C1)C2 [Compound 908, N-{3-[2-(4-chloro-3-fluorophenoxy)acetamido]bicyclo[1.1.1]pentan-1-yl}-5-methyl-1,2-oxazole-4-carboxamide]",> 2000
22,"CN(C)Cc1ccc(C(=O)NC23CC(NC(=O)COc4ccc(Cl)c(F)c4)(C2)C3)cc1 [Compound 546, N-{3-[2-(4-chloro-3-fluorophenoxy)acetamido]bicyclo[1.1.1]pentan-1-yl}-4-[(dimethylamino)methyl]benzamide]",> 2000
23,"O=C(COc1ccc(Cl)c(Cl)c1)NC12CC(NC(=O)c3cnc4ccccc4n3)(C1)C2 [Compound 920, N-{3-[2-(3,4-dichlorophenoxy)acetamido]bicyclo[1.1.1]pentan-1-yl}quinoxaline-2-carboxamide]",< 50
24,"N#Cc1cccc(C(=O)NC23CCC(NC(=O)COc4ccc(Cl)c(F)c4)(CC2)CC3O)c1 (stereo not shown) [Compound 209, N-{4-[2-(4-chloro-3-fluorophenoxy)acetamido]-2-hydroxybicyclo[2.2.2]octan-1-yl}-3-cyanobenzamide]",250 to 1000
25,"O=C(COc1ccc(Cl)c(F)c1)NC12CC(NC(=O)c3nc4ccccc4o3)(C1)C2 [Compound 347, N-{3-[2-(4-chloro-3-fluorophenoxy)acetamido]bicyclo[1.1.1]pentan-1-yl}-1,3-benzoxazole-2-carboxamide]",250 to 1000
